In the CombiSolv-Exp solvation set (Vermeire and Green 2021):
Blank lines part the entries; values can stand above or below the compound they belong to.

Test: solvent given as SMILES

- solvation free energy, 298 K (in CCCCCCC): -5.35 kcal/mol
- solvation free energy, 298 K (in CCCCCCCCCCCCCCCC): -5.21 kcal/mol
- solvation free energy, 298 K (in CCCCCCCCO): -5.46 kcal/mol
- solvation free energy, 298 K (in O): -2.53 kcal/mol
- solvation free energy, 298 K (in [2H]O[2H]): -2.62 kcal/mol
Structure (SMILES): COc1ccccc1

- solvation free energy, 298 K (in CCCCCC): -6.02 kcal/mol
- solvation free energy, 298 K (in O): -2.22 kcal/mol
Structure (SMILES): CCOc1ccccc1

- solvation free energy, 298 K (in O): -6.55 kcal/mol
Structure (SMILES): COCCN

- solvation free energy, 298 K (in O): -2.13 kcal/mol
Structure (SMILES): CC(C)CCOC=O

- solvation free energy, 298 K (in O): -0.4 kcal/mol
Structure (SMILES): CC1=CC2C(=C(C)CCC2C(C)C)CC1 (stereo not given)

- solvation free energy, 298 K (in O): -6.72 kcal/mol
Structure (SMILES): COC(=O)CC#N

- solvation free energy, 298 K (in CC(C)CO): -12.2 kcal/mol
- solvation free energy, 298 K (in CC(C)O): -12.2 kcal/mol
- solvation free energy, 298 K (in CCC(C)O): -12.5 kcal/mol
- solvation free energy, 298 K (in CCCCO): -12.4 kcal/mol
- solvation free energy, 298 K (in CCCO): -12.4 kcal/mol
- solvation free energy, 298 K (in CCO): -12.4 kcal/mol
- solvation free energy, 298 K (in CO): -12.5 kcal/mol
Structure (SMILES): O=C(Oc1ccccc1)c1ccccc1O

- solvation free energy, 298 K (in O): 0.78 kcal/mol
Structure (SMILES): CC1=CCC23CC1C(C)(C)C2CCC3C (stereo not given)

- solvation free energy, 298 K (in CCCCCC): -7.15 kcal/mol
Structure (SMILES): COc1ccc(O)cc1

- solvation free energy, 298 K (in C1CCOC1): -4.42 kcal/mol
- solvation free energy, 298 K (in C=CCCCC): -3.65 kcal/mol
- solvation free energy, 298 K (in C=CCCCCCCCCCCCCCC): -3.15 kcal/mol
- solvation free energy, 298 K (in CC(C)CC(C)(C)C): -3.45 kcal/mol
- solvation free energy, 298 K (in CC(C)CCCC(C)CCCC(C)CCCCC(C)CCCC(C)CCCC(C)C): -3.09 kcal/mol
- solvation free energy, 298 K (in CCCCCCCC): -3.23 kcal/mol
- solvation free energy, 298 K (in CCCCCCCCCCCCCCCC): -3.18 kcal/mol
- solvation free energy, 298 K (in CCCCCCCCO): -4.64 kcal/mol
- solvation free energy, 298 K (in CCCCCO): -3.7 kcal/mol
- solvation free energy, 298 K (in CCOC(C)=O): -4.33 kcal/mol
- solvation free energy, 298 K (in CN1CCCC1=O): -4.16 kcal/mol
- solvation free energy, 298 K (in CO): -4.34 kcal/mol
- solvation free energy, 298 K (in NC=O): -3.52 kcal/mol
- solvation free energy, 298 K (in O): -3.12 kcal/mol
- solvation free energy, 298 K (in O=CN1CCOCC1): -3.94 kcal/mol
- solvation free energy, 298 K (in [2H]O[2H]): -3.11 kcal/mol
Structure (SMILES): CCCC=O

- solvation free energy, 298 K (in O): -4.71 kcal/mol
Structure (SMILES): O=Cc1ccccc1O

- solvation free energy, 298 K (in CCCCCCCCO): -12.5 kcal/mol
Structure (SMILES): O=C(O)c1ccccc1[N+](=O)[O-]

- solvation free energy, 298 K (in O): 0.74 kcal/mol
Structure (SMILES): C#CCCCCCCC

The remaining lines, values behind:

Structure (SMILES): C=CCCC=C
- solvation free energy, 298 K (in C=CCCCCCCCCCCCCCC): -3.36 kcal/mol
- solvation free energy, 298 K (in CCCCCCCCCCCCCCCC): -3.48 kcal/mol
- solvation free energy, 298 K (in CN1CCCC1=O): -3.23 kcal/mol
- solvation free energy, 298 K (in CS(C)=O): -2.74 kcal/mol
- solvation free energy, 298 K (in O): 0.97 kcal/mol

Structure (SMILES): FC(F)=CCl
- solvation free energy, 298 K (in CCCCCCCC(=O)OCC(COC(=O)CCCCCCC)OC(=O)CCCCCCC): -1.77 kcal/mol
- solvation free energy, 298 K (in CCCCCCCCO): -1.69 kcal/mol
- solvation free energy, 298 K (in CN1CCCC1=O): -2.26 kcal/mol
- solvation free energy, 298 K (in CN(C)C=O): -1.99 kcal/mol
- solvation free energy, 298 K (in O): 0.52 kcal/mol

Structure (SMILES): Brc1ccccc1
- solvation free energy, 298 K (in C1CCOC1): -6.45 kcal/mol
- solvation free energy, 298 K (in C1COCCO1): -6.45 kcal/mol
- solvation free energy, 298 K (in CCCCCC): -5.66 kcal/mol
- solvation free energy, 298 K (in CCCCCCC): -5.72 kcal/mol
- solvation free energy, 298 K (in CCCCCCCCCC): -5.43 kcal/mol
- solvation free energy, 298 K (in CCCCCCCCCCCCCCCC): -5.47 kcal/mol
- solvation free energy, 298 K (in CN(C)C=O): -6.21 kcal/mol
- solvation free energy, 298 K (in COCCO): -5.73 kcal/mol
- solvation free energy, 298 K (in ClC(Cl)(Cl)Cl): -6.23 kcal/mol
- solvation free energy, 298 K (in NC=O): -4.11 kcal/mol
- solvation free energy, 298 K (in O): -1.46 kcal/mol
- solvation free energy, 298 K (in OCCO): -4.42 kcal/mol

Structure (SMILES): O=O
- solvation free energy, 298 K (in Brc1ccccc1): 1.16 kcal/mol
- solvation free energy, 298 K (in C1CCCCC1): 0.75 kcal/mol
- solvation free energy, 298 K (in C1CCOC1): 0.82 kcal/mol
- solvation free energy, 298 K (in C1COCCO1): 1.1 kcal/mol
- solvation free energy, 298 K (in CC(C)(C)O): 0.78 kcal/mol
- solvation free energy, 298 K (in CC(C)=O): 0.76 kcal/mol
- solvation free energy, 298 K (in CC(C)CC(C)(C)C): 0.51 kcal/mol
- solvation free energy, 298 K (in CC(C)CO): 0.89 kcal/mol
- solvation free energy, 298 K (in CC(C)O): 0.89 kcal/mol
- solvation free energy, 298 K (in CCC(C)=O): 0.76 kcal/mol
- solvation free energy, 298 K (in CCC(C)O): 0.91 kcal/mol
- solvation free energy, 298 K (in CCCC(C)=O): 0.81 kcal/mol
- solvation free energy, 298 K (in CCCCC(C)=O): 0.86 kcal/mol
- solvation free energy, 298 K (in CCCCCC): 0.59 kcal/mol
- solvation free energy, 298 K (in CCCCCCC): 0.64 kcal/mol
- solvation free energy, 298 K (in CCCCCCCC): 0.7 kcal/mol
- solvation free energy, 298 K (in CCCCCCCCC): 0.73 kcal/mol
- solvation free energy, 298 K (in CCCCCCCCCC): 0.77 kcal/mol
- solvation free energy, 298 K (in CCCCCCCCCCC): 0.79 kcal/mol
- solvation free energy, 298 K (in CCCCCCCCCCCC): 0.83 kcal/mol
- solvation free energy, 298 K (in CCCCCCCCCCCCC): 0.87 kcal/mol
- solvation free energy, 298 K (in CCCCCCCCCCCCCC): 0.89 kcal/mol
- solvation free energy, 298 K (in CCCCCCCCCCCCCCC): 0.92 kcal/mol
- solvation free energy, 298 K (in CCCCCCCCCCCCCCCC): 0.94 kcal/mol
- solvation free energy, 298 K (in CCCCCCCCCCCO): 1.1 kcal/mol
- solvation free energy, 298 K (in CCCCCCCCCCO): 1.09 kcal/mol
- solvation free energy, 298 K (in CCCCCCCCCO): 1.06 kcal/mol
- solvation free energy, 298 K (in CCCCCCCCO): 1.04 kcal/mol
- solvation free energy, 298 K (in CCCCCCCO): 1.02 kcal/mol
- solvation free energy, 298 K (in CCCCCCO): 0.98 kcal/mol
- solvation free energy, 298 K (in CCCCCO): 0.95 kcal/mol
- solvation free energy, 298 K (in CCCCO): 0.93 kcal/mol
- solvation free energy, 298 K (in CCCCOCCCC): 0.78 kcal/mol
- solvation free energy, 298 K (in CCCO): 0.9 kcal/mol
- solvation free energy, 298 K (in CCCOCCC): 0.65 kcal/mol
- solvation free energy, 298 K (in CCO): 0.85 kcal/mol
- solvation free energy, 298 K (in CCOC(C)=O): 0.9 kcal/mol
- solvation free energy, 298 K (in CCOCC): 0.48 kcal/mol
- solvation free energy, 298 K (in CNC=O): 1.12 kcal/mol
- solvation free energy, 298 K (in CO): 0.82 kcal/mol
- solvation free energy, 298 K (in COC(C)=O): 0.77 kcal/mol
- solvation free energy, 298 K (in Cc1ccc(C)cc1): 0.83 kcal/mol
- solvation free energy, 298 K (in Cc1cccc(C)c1): 0.85 kcal/mol
- solvation free energy, 298 K (in Cc1ccccc1C): 0.88 kcal/mol
- solvation free energy, 298 K (in ClC(Cl)(Cl)Cl): 0.71 kcal/mol
- solvation free energy, 298 K (in ClC(Cl)Cl): 0.97 kcal/mol
- solvation free energy, 298 K (in ClCCCl): 1.09 kcal/mol
- solvation free energy, 298 K (in ClCCl): 0.9 kcal/mol
- solvation free energy, 298 K (in Clc1ccccc1): 1 kcal/mol
- solvation free energy, 298 K (in Fc1ccccc1): 0.56 kcal/mol
- solvation free energy, 298 K (in Ic1ccccc1): 1.3 kcal/mol
- solvation free energy, 298 K (in O): 2.06 kcal/mol
- solvation free energy, 298 K (in O=C1CCCC1): 1.1 kcal/mol
- solvation free energy, 298 K (in O=C1CCCCC1): 1.13 kcal/mol

Structure (SMILES): CCOCOCC
- solvation free energy, 298 K (in CCCCCl): -4.67 kcal/mol
- solvation free energy, 298 K (in ClC(Cl)(Cl)Cl): -4.97 kcal/mol
- solvation free energy, 298 K (in ClCCl): -5.47 kcal/mol
- solvation free energy, 298 K (in O): -2.96 kcal/mol

Structure (SMILES): CC[N+](=O)[O-]
- solvation free energy, 298 K (in C=CCCCCCCCCCCCCCC): -3.33 kcal/mol
- solvation free energy, 298 K (in CCC(C)=O): -5.25 kcal/mol
- solvation free energy, 298 K (in CCCC(C)C): -4.09 kcal/mol
- solvation free energy, 298 K (in CCCCCCC): -3.34 kcal/mol
- solvation free energy, 298 K (in CCCCCCCC): -3.37 kcal/mol
- solvation free energy, 298 K (in CCCCCCCCCCCCCCCC): -3.17 kcal/mol
- solvation free energy, 298 K (in CCCCCCCCO): -3.93 kcal/mol
- solvation free energy, 298 K (in COC(C)=O): -5.46 kcal/mol
- solvation free energy, 298 K (in O): -3.72 kcal/mol
- solvation free energy, 298 K (in [2H]O[2H]): -3.75 kcal/mol

Structure (SMILES): CCCCCCCI
- solvation free energy, 298 K (in O): 0.27 kcal/mol

Structure (SMILES): CCCCCCCCOC(=O)c1ccccc1C(=O)OCCCCCCCC
- solvation free energy, 298 K (in O): -6.68 kcal/mol

Structure (SMILES): COc1cc(C(C)=O)cc(-c2cc(C(C)=O)cc(OC)c2O)c1O
- solvation free energy, 298 K (in CCC(C)=O): -21.7 kcal/mol
- solvation free energy, 298 K (in CCCO): -21.1 kcal/mol
- solvation free energy, 298 K (in Cc1ccccc1): -20.8 kcal/mol
- solvation free energy, 298 K (in ClC=CCl): -22 kcal/mol
- solvation free energy, 298 K (in O): -19.2 kcal/mol

Structure (SMILES): c1ccc2c(c1)sc1ccccc12
- solvation free energy, 298 K (in CC(=O)N(C)C): -11.5 kcal/mol
- solvation free energy, 298 K (in CCCCCCCCC=CCCCCCCCC(=O)OCC(COC(=O)CCCCCCCC=CCCCCCCCC)OC(=O)CCCCCCCC=CCCCCCCCC): -10.6 kcal/mol
- solvation free energy, 298 K (in CN1CCCC1=O): -11.6 kcal/mol
- solvation free energy, 298 K (in O): -4.05 kcal/mol

Structure (SMILES): CCCCC(C)C
- solvation free energy, 298 K (in C=CCCCCCCCCCCCCCC): -3.96 kcal/mol
- solvation free energy, 298 K (in CC#N): -2.99 kcal/mol
- solvation free energy, 298 K (in O): 2.93 kcal/mol

Structure (SMILES): Clc1ccc(C(c2ccc(Cl)cc2)C(Cl)Cl)cc1
- solvation free energy, 298 K (in CCCCCCCCO): -13.7 kcal/mol
- solvation free energy, 298 K (in O): -4.88 kcal/mol
